Measurements: PubChem BioAssay AID1259407 (Chemical Carcinogenesis Research Information System (CCRIS), 2018)
Active and inactive are the calls of the source. The rule behind the calls is not given here.

Test system: CCRIS mutagenicity, Ames/micronucleus/aberration tests
Assay: CCRIS mutagenicity studies
[1] = Test System: UDS RAT HEPATOCYTES, Strain/Indicator: THY INCORP, Metabolic Activation: NONE, Method: AUTORADIOGRAPHY

Row | SMILES | mutagenic call (End Point: IN VITRO MICRONUCLEUS, Test System: CHL/IU CELLS, Metabolic Activation: NONE) | mutagenic call [1] | mutagenic call (Test System: AMES SALMONELLA TYPHIMURIUM, Strain/Indicator: TA98, Metabolic Activation: HUMAN, BLOOD, CYTOSOL, Method: PREINCUBATION) | mutagenic call (Test System: AMES SALMONELLA TYPHIMURIUM, Strain/Indicator: TA98, Metabolic Activation: MONKEY, LIVER, S-9, Method: PREINCUBATION) | mutagenic call (Test System: AMES SALMONELLA TYPHIMURIUM, Strain/Indicator: TA98, Metabolic Activation: MOUSE, LIVER, MICROSOMES, TCDD, Method: STANDARD PLATE) | mutagenic call (Test System: AMES SALMONELLA TYPHIMURIUM, Strain/Indicator: TA98, Metabolic Activation: MOUSE, LIVER, MICROSOMES, Method: STANDARD PLATE) | mutagenic call (Test System: AMES SALMONELLA TYPHIMURIUM, Strain/Indicator: TA98, Metabolic Activation: RAT, BLADDER, S-9, PCB, Method: FLUCTUATION TEST) | mutagenic call (Test System: AMES SALMONELLA TYPHIMURIUM, Strain/Indicator: TA98, Metabolic Activation: RAT, HEPATOCYTES, AROCLOR 1254, Method: PREINCUBATION) | mutagenic call (Test System: AMES SALMONELLA TYPHIMURIUM, Strain/Indicator: TA98, Metabolic Activation: RAT, LIVER, S-9, AROCLOR 1254, Method: PREINCUBATION) | mutagenic call (Test System: AMES SALMONELLA TYPHIMURIUM, Strain/Indicator: TA100, Metabolic Activation: RAT, BLADDER, S-9, PCB, Method: FLUCTUATION TEST) | mutagenic call (Test System: AMES SALMONELLA TYPHIMURIUM, Strain/Indicator: TA100, Metabolic Activation: RAT, LIVER, S-9, AROCLOR 1254, Method: PREINCUBATION) | mutagenic call (Test System: AMES SALMONELLA TYPHIMURIUM, Strain/Indicator: YG1019, Metabolic Activation: RAT LIVER S-9, AROCLOR, Method: PREINCUBATION) | mutagenic call (Test System: CHINESE HAMSTER V-79, Strain/Indicator: V-79/8-AZAGUANINE, Metabolic Activation: NONE, Method: SUSPENSION/PLATE) | mutagenic call (Test System: CHINESE HAMSTER V-79, Strain/Indicator: V-79/8-AZAGUANINE, Metabolic Activation: S-9, Method: SUSPENSION/PLATE) | mutagenic call (Test System: CHINESE HAMSTER V-79, Strain/Indicator: V-79/OUABAIN, Metabolic Activation: NONE, Method: SUSPENSION/PLATE) | mutagenic call (Test System: CHINESE HAMSTER V-79, Strain/Indicator: V-79/OUABAIN, Metabolic Activation: S-9, Method: SUSPENSION/PLATE) | mutagenic call (Test System: UDS HAMSTER HEPATOCYTES, Strain/Indicator: THY INCORP, Metabolic Activation: NONE, Method: LIQUID SCINTILLATION COUNTING) | mutagenic call (Test System: UDS HUMAN HEPATOCYTES, Strain/Indicator: THY INCORP, Metabolic Activation: NONE, Method: AUTORADIOGRAPHY) | mutagenic call (Test System: UDS MOUSE HEPATOCYTES, Strain/Indicator: THY INCORP, Metabolic Activation: NONE, Method: AUTORADIOGRAPHY) | mutagenic call (Test System: UDS RAT HEPATOCYTES, Strain/Indicator: THY INCORP, Metabolic Activation: NONE, Method: LIQUID SCINTILLATION COUNTING)
1 | CC(=O)[O-].CC(=O)[O-].CC(=O)[O-].[Cr+3] | active; positive | inactive; negative |  |  |  |  |  |  |  |  |  |  |  |  |  |  |  |  |  | 
2 | Cc1c(N)nc(C)c2c1[nH]c1ccccc12 |  | inactive; negative | active; positive | active; positive | active; positive | active; positive | active; positive | active; positive | active; positive | active; positive | inactive; negative | active; positive | active; positive | active; positive | inactive; negative | inactive; negative | active; positive | active; positive | active; positive | inactive; negative
